Assay in all cases: Kinase selectivity, DiscoverX scanMAX Kinase assay panel (% control)
Holding throughout (format): binding

Assay [1] deals with T1, kinases of the scanMAX Kinase assay panel (Homo sapiens, UniProt P48730).
T1 construct: purchased DiscoverX Co. (contract measurement) scanMAX Kinase assay panel
Particulars: CSNK1D; 1 uM. Summed up: (§1)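 Percent of control computed as (compound − positive control)/(negative control − positive control) × 100, DMSO defining 100% and positive control 0%. Each panel kinase exposed to 1 uM compound; values under 35% taken to mean the compound acts on that kinase.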

The target of assay [2] is T2, kinases of the scanMAX Kinase assay panel (Homo sapiens, UniProt O43683).
T2 construct: purchased DiscoverX Co. (contract measurement) scanMAX Kinase assay panel
Particulars: BUB1; 1 uM. Summed up: as §1

In assay [3] the target is T3, kinases of the scanMAX Kinase assay panel (Homo sapiens, UniProt O95835).
T3 construct: purchased DiscoverX Co. (contract measurement) scanMAX Kinase assay panel
T3 sequence (O95835 1-1130): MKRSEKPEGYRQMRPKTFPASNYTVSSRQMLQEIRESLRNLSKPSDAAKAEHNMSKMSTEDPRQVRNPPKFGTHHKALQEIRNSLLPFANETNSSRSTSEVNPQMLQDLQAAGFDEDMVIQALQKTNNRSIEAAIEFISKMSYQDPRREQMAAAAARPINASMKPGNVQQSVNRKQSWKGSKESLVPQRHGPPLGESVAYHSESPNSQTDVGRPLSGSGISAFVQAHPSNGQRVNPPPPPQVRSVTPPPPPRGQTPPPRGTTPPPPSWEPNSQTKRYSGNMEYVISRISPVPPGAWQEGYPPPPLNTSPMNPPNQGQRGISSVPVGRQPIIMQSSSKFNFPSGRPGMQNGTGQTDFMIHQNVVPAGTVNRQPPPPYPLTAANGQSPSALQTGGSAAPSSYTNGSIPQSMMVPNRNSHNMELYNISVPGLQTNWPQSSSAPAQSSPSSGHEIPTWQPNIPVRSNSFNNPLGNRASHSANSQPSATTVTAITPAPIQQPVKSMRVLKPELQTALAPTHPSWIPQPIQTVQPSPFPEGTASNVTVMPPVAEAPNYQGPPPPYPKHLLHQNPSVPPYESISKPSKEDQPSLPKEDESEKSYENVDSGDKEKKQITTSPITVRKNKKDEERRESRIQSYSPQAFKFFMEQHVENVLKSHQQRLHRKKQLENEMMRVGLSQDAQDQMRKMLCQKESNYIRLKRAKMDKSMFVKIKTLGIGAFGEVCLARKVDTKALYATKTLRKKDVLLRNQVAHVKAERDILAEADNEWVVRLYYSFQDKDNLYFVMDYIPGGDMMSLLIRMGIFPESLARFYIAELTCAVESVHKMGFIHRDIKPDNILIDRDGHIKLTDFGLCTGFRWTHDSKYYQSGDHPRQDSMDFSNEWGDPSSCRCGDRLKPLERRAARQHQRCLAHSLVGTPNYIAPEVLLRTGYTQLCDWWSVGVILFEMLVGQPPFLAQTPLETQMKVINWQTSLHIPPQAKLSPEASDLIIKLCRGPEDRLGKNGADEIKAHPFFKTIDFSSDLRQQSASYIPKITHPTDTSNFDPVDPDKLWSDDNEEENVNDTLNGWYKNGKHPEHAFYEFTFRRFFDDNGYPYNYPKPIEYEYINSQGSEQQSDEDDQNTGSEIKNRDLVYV
To be noted: LATS1; 1 uM. Summed up:
as §1

The target of assay [4] is T4, kinases of the scanMAX Kinase assay panel (Homo sapiens, UniProt Q9UK32).
T4 construct: purchased DiscoverX Co. (contract measurement) scanMAX Kinase assay panel
Particulars: 1 uM in DMSO. Summed up:
as §1

Assay [5] concerns the target T5, kinases of the scanMAX Kinase assay panel (Homo sapiens, UniProt P46734).
T5 construct: purchased DiscoverX Co. (contract measurement) scanMAX Kinase assay panel
T5 sequence (P46734 1-347): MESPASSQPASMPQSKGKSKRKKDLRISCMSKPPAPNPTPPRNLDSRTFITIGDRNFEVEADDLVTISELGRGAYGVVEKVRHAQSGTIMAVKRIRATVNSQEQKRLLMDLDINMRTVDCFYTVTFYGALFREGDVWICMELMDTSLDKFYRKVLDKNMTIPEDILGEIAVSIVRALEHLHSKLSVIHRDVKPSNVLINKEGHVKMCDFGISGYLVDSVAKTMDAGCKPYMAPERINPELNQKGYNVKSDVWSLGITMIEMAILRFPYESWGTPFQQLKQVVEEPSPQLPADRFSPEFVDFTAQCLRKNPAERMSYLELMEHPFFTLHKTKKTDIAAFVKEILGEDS
To be noted: MEK3; 1 uM. Summed up:
as §1

Assay [6] addresses T6, kinases of the scanMAX Kinase assay panel (Homo sapiens, UniProt Q9UKI8).
T6 construct: purchased DiscoverX Co. (contract measurement) scanMAX Kinase assay panel
T6 sequence (Q9UKI8 1-766): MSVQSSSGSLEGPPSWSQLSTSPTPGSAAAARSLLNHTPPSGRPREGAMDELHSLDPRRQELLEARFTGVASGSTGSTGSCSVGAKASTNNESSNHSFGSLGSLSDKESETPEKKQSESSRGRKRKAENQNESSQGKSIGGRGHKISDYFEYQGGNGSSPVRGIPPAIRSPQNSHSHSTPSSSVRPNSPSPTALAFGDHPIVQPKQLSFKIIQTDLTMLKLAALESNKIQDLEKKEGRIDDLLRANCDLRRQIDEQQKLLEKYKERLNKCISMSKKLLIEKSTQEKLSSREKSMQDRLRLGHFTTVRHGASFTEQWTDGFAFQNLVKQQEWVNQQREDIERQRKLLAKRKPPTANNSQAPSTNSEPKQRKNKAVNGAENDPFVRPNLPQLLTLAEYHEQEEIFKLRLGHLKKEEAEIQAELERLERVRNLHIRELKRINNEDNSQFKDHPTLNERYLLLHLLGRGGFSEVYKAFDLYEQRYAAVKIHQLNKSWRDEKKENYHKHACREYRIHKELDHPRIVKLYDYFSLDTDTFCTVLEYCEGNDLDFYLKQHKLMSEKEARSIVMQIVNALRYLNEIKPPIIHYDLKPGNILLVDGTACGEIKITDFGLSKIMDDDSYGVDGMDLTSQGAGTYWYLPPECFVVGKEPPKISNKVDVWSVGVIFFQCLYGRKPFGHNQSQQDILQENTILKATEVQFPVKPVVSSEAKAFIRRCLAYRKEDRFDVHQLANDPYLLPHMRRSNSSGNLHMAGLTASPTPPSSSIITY
Particulars: kinase TLK1; 1 uM in DMSO. Summed up: as §1

Where [7] appears, read: kinase RSK4(Kin.Dom.1-N-terminal), read-out: % control, RSK4(Kin.Dom.1-N-terminal).
Setting [8] is: kinase RSK4(Kin.Dom.2-C-terminal), read-out: % control, RSK4(Kin.Dom.2-C-terminal).

Like-named read-outs stand apart in the source and are kept apart here.

For 3 molecules, remaining binding results are on record in US11208412B2 (DAEGU-GYEONGBUK MEDICAL INNOVATION FOUNDATION, priority 2017, dated 2021).

T2 sequence (O43683 whole entry): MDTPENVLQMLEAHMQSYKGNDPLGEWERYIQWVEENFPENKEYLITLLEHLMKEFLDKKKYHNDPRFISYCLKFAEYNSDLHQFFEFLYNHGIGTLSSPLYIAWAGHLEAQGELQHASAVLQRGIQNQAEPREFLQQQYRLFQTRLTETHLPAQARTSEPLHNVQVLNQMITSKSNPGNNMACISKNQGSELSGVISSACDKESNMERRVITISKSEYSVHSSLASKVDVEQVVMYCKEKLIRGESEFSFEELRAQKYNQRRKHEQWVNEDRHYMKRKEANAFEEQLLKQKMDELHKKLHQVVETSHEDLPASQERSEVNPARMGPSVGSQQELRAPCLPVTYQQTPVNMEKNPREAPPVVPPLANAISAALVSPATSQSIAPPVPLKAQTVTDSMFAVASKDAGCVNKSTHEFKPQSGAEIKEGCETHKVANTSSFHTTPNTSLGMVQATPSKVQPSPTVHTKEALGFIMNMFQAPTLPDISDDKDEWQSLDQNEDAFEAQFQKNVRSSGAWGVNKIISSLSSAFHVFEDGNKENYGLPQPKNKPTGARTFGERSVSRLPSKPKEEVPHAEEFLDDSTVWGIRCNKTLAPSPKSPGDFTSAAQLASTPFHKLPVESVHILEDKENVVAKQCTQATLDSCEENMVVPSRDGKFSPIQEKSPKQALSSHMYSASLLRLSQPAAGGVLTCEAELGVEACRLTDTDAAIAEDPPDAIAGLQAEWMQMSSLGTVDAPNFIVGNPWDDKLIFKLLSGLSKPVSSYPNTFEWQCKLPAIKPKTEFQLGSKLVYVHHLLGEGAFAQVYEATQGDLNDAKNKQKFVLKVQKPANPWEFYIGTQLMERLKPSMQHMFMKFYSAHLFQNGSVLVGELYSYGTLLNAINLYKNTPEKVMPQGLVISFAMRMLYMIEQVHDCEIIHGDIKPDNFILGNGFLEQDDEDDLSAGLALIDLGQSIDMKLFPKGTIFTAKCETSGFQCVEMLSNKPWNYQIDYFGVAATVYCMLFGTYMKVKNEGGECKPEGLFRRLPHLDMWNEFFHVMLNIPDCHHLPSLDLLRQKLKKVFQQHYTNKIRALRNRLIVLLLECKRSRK
T4 sequence (Q9UK32 whole entry): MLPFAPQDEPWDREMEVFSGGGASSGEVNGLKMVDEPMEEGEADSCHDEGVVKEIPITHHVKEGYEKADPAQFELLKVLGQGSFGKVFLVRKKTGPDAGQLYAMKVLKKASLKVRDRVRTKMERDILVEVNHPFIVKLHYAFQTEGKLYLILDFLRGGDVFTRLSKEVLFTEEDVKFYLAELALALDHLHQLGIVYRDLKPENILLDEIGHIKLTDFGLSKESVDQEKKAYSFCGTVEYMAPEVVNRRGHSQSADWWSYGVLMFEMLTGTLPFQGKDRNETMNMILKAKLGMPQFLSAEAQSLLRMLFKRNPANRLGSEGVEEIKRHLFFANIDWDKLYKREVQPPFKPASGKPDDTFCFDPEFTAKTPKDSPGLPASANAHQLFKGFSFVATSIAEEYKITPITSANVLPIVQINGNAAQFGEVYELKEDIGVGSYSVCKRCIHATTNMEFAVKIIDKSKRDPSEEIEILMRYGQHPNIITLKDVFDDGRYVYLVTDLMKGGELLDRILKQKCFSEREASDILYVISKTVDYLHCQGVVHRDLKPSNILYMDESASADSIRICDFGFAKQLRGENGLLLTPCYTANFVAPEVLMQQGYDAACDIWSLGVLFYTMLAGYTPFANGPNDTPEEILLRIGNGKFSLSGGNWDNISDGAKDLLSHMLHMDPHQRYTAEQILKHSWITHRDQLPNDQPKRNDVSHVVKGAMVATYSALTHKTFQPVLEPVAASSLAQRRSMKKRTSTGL
T1 sequence (P48730 whole entry): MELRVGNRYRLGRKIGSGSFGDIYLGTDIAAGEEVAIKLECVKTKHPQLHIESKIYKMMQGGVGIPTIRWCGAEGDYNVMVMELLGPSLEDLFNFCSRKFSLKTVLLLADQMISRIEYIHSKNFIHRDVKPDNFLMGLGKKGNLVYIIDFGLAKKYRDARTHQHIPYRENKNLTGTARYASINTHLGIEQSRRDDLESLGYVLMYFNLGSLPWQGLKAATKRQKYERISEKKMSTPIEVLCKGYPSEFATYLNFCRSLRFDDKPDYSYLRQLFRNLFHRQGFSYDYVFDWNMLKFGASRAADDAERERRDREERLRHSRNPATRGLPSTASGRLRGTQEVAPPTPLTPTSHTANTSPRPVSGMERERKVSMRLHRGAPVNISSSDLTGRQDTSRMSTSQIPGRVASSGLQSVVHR

As for `CNc1nc(Nc2ccc(C(=O)N3CCOCC3)cc2OC)nc2[nH]cc(C#N)c12` [Example 1, 2-((2-methoxy-4-(morpholine-4-carbonyl)phenyl)amino)-4-(methylamino)-7H-pyrrolo[2,3-d]pyrimidine-5-carbonitrile], the remaining binding at 1 µM was determined as 5% in assay [1]; 36% in assay [2]; 100% in assay [3]; 79% in assay [4] (setting [7]); 77% in assay [4] (setting [8]); 4.3% in assay [5]. In assay [6], this molecule showed a remaining binding at 1 µM of 95%.
Regarding `CC1(Nc2nc(Nc3cnn([C@H]4CCN(C5COC5)C[C@@H]4F)c3Cl)nc3[nH]cc(C#N)c23)CC1` [Example 52, 2-((5-chloro-1-((3S,4S)-3-fluoro-1-(oxetane-3-yl)piperidine-4-yl)-1H-pyrazole-4-yl)amino)((1-methylcyclopropyl)amino)-7H-pyrrolo[2,3-d]pyrimidine-5-carbonitrile], the remaining binding at 1 µM is 1% in assay [1]; 0.2% in assay [2]; 35% in assay [3]; 7.1% in assay [4] (setting [7]); 75% in assay [4] (setting [8]); 0.8% in assay [5]. The molecule further gave a remaining binding at 1 µM in assay [6] of 78%.
As to `CCNc1nc(Nc2ccc(C(=O)N3CCC(N4CCOCC4)CC3)cc2OC)nc2[nH]cc(C(F)(F)F)c12` [Example 104, (4-((4-(ethylamino)-5-(trifluoromethyl)-7H-pyrrolo[2,3-d]pyrimidine-2-yl)amino)-3-methoxyphenyl)(4-morpholinopiperidine-1-yl)methanone], the remaining binding at 1 µM stood at 2.6% in assay [1]; 95% in assay [2]; 100% in assay [3]; 95% in assay [4] (setting [7]); 97% in assay [4] (setting [8]); 12% in assay [5]. Moreover, the remaining binding at 1 µM in assay [6] was 72%.
